Legend:
[1] = tested on: healthy subjects; assay: Example 2: conjunctiva congestion rating; type: in vivo, human
Excerpt: (§1) Conjunctiva Congestion was rated by a trained observer on a scale of 0-3 based on the blood vessels present as follows:
(§2) 0—None (The white of the eye was not affected)
(§3) 3—Considerable (The compete white of the eye is red caused by a pattern of bigger vessels. This is associated with complaints.)
Changes from baseline in conjunctiva congestion and heart rate were compared for all time-points measured, and summarized using descriptive statistics. Subjective ratings were individually tabulated and sorted by treatment group, subject number, and time, and summarized using descriptive statistics. Separate tables were provided to summarize differences between males and females if applicable. Pharmacodynamic assessments were compared with delta-9 THC and 11-OH-THC blood concentrations and summarized using descriptive statistics.

[2] = tested on: healthy subjects; assay: Example 1: conjunctiva congestion rating; type: in vivo, human
Excerpt: as §1, §2, §3
Absolute values of heart rate and conjunctive congestion scores were used to calculate changes from baseline.

[3] = Example 1 single rising dose inhaled delta-9-THC study: plasma pharmacokinetics
Procedure: A randomized, double blind, placebo controlled, three way crossover, single rising dose human clinical study in two sequential groups (Groups I and II) of nine young healthy male subjects (18-45 years of age and body mass index (BMI) of 20-26 kg/m^2) of a metered dose inhalation composition according to one embodiment the present invention was conducted. Each subject received two ascending single doses of inhaled delta-9-THC and one single dose of inhaled placebo according to a three-way crossover balanced incomplete block design. The administered composition is detailed in Table 1. Composition I provides 0.3 mg per actuation, while Composition II provides 1.2 mg per actuation.
Each sequential dose level or period was separated by a washout period of two weeks, during which an interim safety and pharmacokinetic analysis was performed. A third group (Group III) of nine elderly healthy male and female subjects (65-80 years old and BMI 18-30 kg/m^2) was added after completion of the sixth study period to participate in a single treatment period. […] Five dose levels were evaluated: 0.3 mg, 1.2 mg, and 2.4 mg in Group I, 3.6 mg, 7.2 mg, and 9.6 mg in Group II, and 3.6 mg in Group III. Subjects were confined to the study center from the day prior to dosing until the 48 hour blood sample. Subjects returned to the center for 72, 96 and 120 hour pharmacokinetic samples. Various pharmacokinetic and pharmacodynamic measurements and sampling were taken according to the Assessment Flow Charts in FIG. 1 and FIG. 2. Safety was measured by monitoring adverse events, physical examination, clinical laboratory and pulmonary function tests, vital signs, 12 lead ECG, and telemetry.
Safety, pharmacokinetic and pharmacodynamic variables were estimated. Plasma concentrations of delta-9-THC (THC), 11-hydroxy-tetrahydrocanabinol (11-OH-THC) and delta-9-tetrahydrocannbinol-carboxylic acid (THC-COOH) were determined for pharmacokinetic analysis.
Whole blood samples were collected according to the assessment flowchart in EDTA tubes through venepuncture or indwelling catheter. Samples were immediately placed on ice and subsequently centrifuged within 30 minutes at 1,500 g for 10 minutes. Plasma was transferred into a 5 ml screw cap polypropylene tube, stoppered and stored at below minus 20° C. until transfer to the analytical laboratory for analysis. […] The measurement ranges were 0.05-30 ng/ml for delta-9-THC, 0.04-30 ng/ml for 11-OH-THC, and 0.25-10 ng/ml for THC-COOH.
Number of subjects, mean, standard deviation, coefficient variable (%) and geometric mean were calculated for all pharmacokinetic parameters.
For Example 1: A mixed ANOVA model with group and dose fixed effect and subject within group by dose as random effect was performed on the logarithms of the dose normalized pharmacokinetic parameters AUC, AUC0-t and Cmax. The overall treatment effect was tested by conventional F-test with Satterthwaites correction. Dose proportionality was tested using Helmert Contrasts and Reverse Helmert Contrasts. The within and between subject coefficient of variances were calculated from the estimated covariance parameters. Per dose level geometric means with 90% confidence interval were calculated for the dose-normalized values from the least squared means analysis outcomes. The difference between young and elderly subjects was explored using a one-way ANOVA.

[4] = tested on: healthy subjects; assay: Example 2: safety, adverse events; type: in vivo, human; details: for events reported among subjects treated with active drug: all six subjects; for events considered probably or possibly related to study drug: all six subjects on active drug
Procedure: Adverse events were recorded based on original descriptions from subject responses to queries. Complete medical histories and physical examinations were conducted. Vital signs were monitored, ECGs were recorded along with pulmonary function tests and laboratory examinations.
Treatment-emergent adverse events (TEAEs), defined as any event that begins or worsens after treatment with study medication, were summarized by MedDRA system organ class (SOC) for each treatment group. The number and percentage of subjects with TEAEs was tabulated for each treatment and with respect to maximum severity and relationship to study medication.

## CCCCCc1cc(O)c2c(c1)OC(C)(C)[C@@H]1CCC(C)=C[C@@H]21 [delta-9-THC, delta-9-tetrahydrocannabinol]
[1]; 1.2 mg, Day 12, 10 minutes after dosing
  subjects with slight conjunctiva congestion: only one subject
[1]; 1.2 mg, Day 12, one subject
  time to resolution of conjunctiva congestion post-dose: ≤ 4 h
[1]; Groups I and II (1.2 mg and 3.6 mg)
  conjunctiva congestion, rest of the study: No other observation of conjunctiva congestion
[2]; 9.6 mg dose group
  number of occurrences of slight congestion: 3
[2]; 0.3 to 7.2 mg doses
  conjunctiva congestion: no or substantially no conjunctiva congestion
[2]; each of the 3.6 and 7.2 mg doses
  occurrence of slight conjunctiva congestion: once
[3]; 7.2 and 9.6 mg doses
  Cmax and AUC versus dose: less than proportional increase
[3]; Groups I and II, doses from 0.3-3.6 mg
  Cmax and AUC versus dose: dose-related increase
[3]; male, human, plasma, inhaled, 2.4 mg
  Cmax: 23.6 ng/mL
[4]; 1.2 mg, Group I, all six
  subjects reporting cough: 100%
[4]; 3.6 mg for two weeks
  subjects with increased liver function tests (summary): three out of nine subjects
[4]; 3.6 mg, Group II, five out of six
  subjects reporting cough: 83.3%
[4]; Group 1, one subject
  subjects reporting euphoric mood: 16.7%
[4]; Group I (1.2 mg dose level)
  most frequently reported TEAEs: cough and somnolence
[4]; Group I Active (1.2 mg)
  TEAEs Probable/Possible, E = number of adverse events: 13
  TEAEs Probable/Possible, N = number of subjects: 6
  TEAEs Unlikely/Unrelated, E = number of adverse events: 7
  TEAEs Unlikely/Unrelated, N = number of subjects: 3
[4]; Group I, 1.2 mg
  Any related TEAE, n (x %) subjects: 6 (100%)
  Any related TEAE, number AEs: 13
  Subjects with at least one AE, n (x %): 6 (100%)
  Subjects with at least one AE, number AEs: 20
[4]; Group I
  events reported among subjects treated with active drug: 27 events
  events considered probably or possibly related to study drug: 13 events
[4]; Group II (3.6 mg dose level)
  most frequently reported TEAEs: cough, headache, and euphoric mood
[4]; Group II Active (3.6 mg)
  TEAEs Probable/Possible, E = number of adverse events: 17
  TEAEs Probable/Possible, N = number of subjects: 6
  TEAEs Unlikely/Unrelated, E = number of adverse events: 9
  TEAEs Unlikely/Unrelated, N = number of subjects: 3
[4]; Group II, 3.6 mg
  Any related TEAE, n (x %) subjects: 6 (100%)
  Any related TEAE, number AEs: 17
  Subjects with at least one AE, n (x %): 6 (100%)
  Subjects with at least one AE, number AEs: 27
  subjects with liver enzymes elevated at follow-up: three subjects
[4]; Group II
  events reported among subjects treated with active drug: 19 events
  events considered probably or possibly related to study drug: 17 events
[4]; Group III (so in the source), three subjects
  subjects reporting euphoric mood: 50.0%
[4]; active treatment, Group I
  duration of intermittent cough: between four and nine days
[4]; active treatment, Group II
  duration of intermittent cough: between six and 18 days
[4]; active treatment, two subjects in each group
  subjects reporting somnolence: 33.3%
[4]; single and multiple dosing with 1.2 and 3.6 mg, pulmonary inhaled
  overall safety and tolerability: safe and well-tolerated
[4]; summary
  vital signs, ECG, physical examination, telemetric monitoring and pulmonary function tests: No dose-related trends or clinically significant changes
[4]; whole study
  deaths or serious adverse events: No deaths or serious adverse events
  intensity of TEAEs: mild intensity
  serious or severe AEs, AEs leading to premature termination: no serious or severe AEs

— patent publication US20070020193A1, “Dronabinol compositions and methods for using same” (priority 2005, published 2007)
